Tests used:
[1] = molecular target: T1, N-his8-TEV-hPARG (389-976) (Homo sapiens, UniProt Q86W56); test: PARG Biochemical Enzymatic Assay (PARG inhibition HTRF assay); conditions: 62.5 pM PARG, 5 nM Biotin-Parylated PARP1 substrate, 60 minutes preincubation, 10 minutes reaction at 23 °C
T1 construct: N-his8-TEV-hPARG (389-976); His8 (N); TEV protease cleavage site (N); made in house; host or cells: E. coli BL21(DE3)
Description: PARG Biochemical Enzymatic Assay
TEV-His8-PolyADP-Ribose Polymerase 1 (379-1014) (PARP1) and N-his8-TEV-hPARG (389-976) were used to transform BL21(DE3) competent cells followed by growth for 1 hour at 37 °C and plating on Kanamycin resistant agar plates. A single colony was then inoculated into 1 ml of Luria Broth and expansion into a 1 liter scale for growth at 37 °C for 3 hours. Expression was induced via 0.2 mM IPTG induction for 20 hours at 16 °C in BL21(DE3) E. coli. Purification was then performed using a Nickel column, size exclusion chromatography and HPLC analysis.
For substrate preparation, […] nicked DNA and 2 μM PARP1 protein were mixed for 10 minutes at 25 °C 10 μM biotin-NAD+ and 100 μM NAD+ were then added and incubated for 60 minutes at 30 °C to yield PARylated PARP1 substrate.
For compound screening, compounds were serially diluted to a 3× final concentration in assay buffer (Tris pH7.5 50 mM, KCl 50 mM, Tween-20 0.01%, BSA 0.1 mg/ml, EDTA 3 mM, EGTA 0.4 mM, DTT 1 mM) containing 1% DMSO. A top concentration of 1.5 μM for a 10-point dose response curve using a 1:3 dilution curve was used. 2.5×PARG (156.25 pM working concentration, 62.5 pM final concentration) was prepared in assay buffer and 4 ul added to a 384 well assay plate containing 2 μl of serially diluted compound. The plate was then centrifuged for 10 seconds and incubated for 60 minutes at 23 °C. 4 μl of 2.5× Biotin-Parylated PARP1 (12.5 nM working concentration, 5 nM final concentration) was then added to the plate and incubated for 10 minutes at 23 °C. 4 μl of […] Detection reagent containing 0.44 μg/ml of Streptavidin-Europium cryptate and 4 μg/ml of anti-6His-XL665 monoclonal antibody was added to the plate and incubated for 60 minutes at 23 °C. The Homogeneous Time Resolved Fluorescent (HTRF) signal was then measured on an Envision plate reader using and excitation wavelength of 337 nm and emission wavelengths of 615 nm and 665 nm. Normalized percent inhibition was then calculated using the following equation: % Inhibition normalized=(compound signal-min signal)/(max signal-min signal)*100%, where Maximum signal was substrate only wells and Minimum signal was enzyme and substrate well. IC50 was calculated by fitting % Inhibition values and log of compound concentrations to nonlinear regression (log(inhibitor) vs. response—Variable slope(four parameters)) with GraphPad 9.4.1
For biochemical activity, bracket is denoted as: A<100 nM; 100 nM<B<500 nM; C>500 nM

Kuramochi cells = test: Cellular Viability Assay (5 day Kuramochi cell viability, CellTiter-Glo); format: cell-based; conditions: 5 days, 37 °C, growth inhibition relative to Day 0 (T0) and DMSO
Description: Kuramochi cells were seeded at a density of 1000 cells per well in a 384-well, white, sterile, clear bottom plate, using a Multidrop liquid dispenser and incubated for 24 hours at 37 °C in a 5% CO2 humidified environment. 24 hours later, compounds were added starting at a top dose of 10 μM for a 9-point dose response curve at a 1:3 dilution using an iDOT HT liquid handler and incubated for 5 days at 37 °C in a 5% CO2 humidified environment. After 5 days and at Day 0, plates were incubated at room temperature for 30 minutes followed by the addition of 30 μl of CellTiter-Glo Reagent. Plates were then mixed for 10 minutes on an orbital shaker followed by incubation at room temperature for 20 minutes. Luminescence was then read using the Envision plate reader. Percent Growth Inhibition was then calculated using the following equation: Percent Growth Inhibition normalized=100−(compound signal−T0)/(max signal−T0)*100%, where Max Signal refers to the DMSO only treated cells and T0 refers to the Day0 viability measurement. Growth Inhibition 50 was then calculated using the following equation: Y=Bottom+(Top−Bottom)/(1+10^((Log IC50−X)*hillslope)).
For cell activity, bracket is denoted as: A<1 uM; 1 uM<B<5 uM; C>5 uM.

T1 sequence (Q86W56 389-976): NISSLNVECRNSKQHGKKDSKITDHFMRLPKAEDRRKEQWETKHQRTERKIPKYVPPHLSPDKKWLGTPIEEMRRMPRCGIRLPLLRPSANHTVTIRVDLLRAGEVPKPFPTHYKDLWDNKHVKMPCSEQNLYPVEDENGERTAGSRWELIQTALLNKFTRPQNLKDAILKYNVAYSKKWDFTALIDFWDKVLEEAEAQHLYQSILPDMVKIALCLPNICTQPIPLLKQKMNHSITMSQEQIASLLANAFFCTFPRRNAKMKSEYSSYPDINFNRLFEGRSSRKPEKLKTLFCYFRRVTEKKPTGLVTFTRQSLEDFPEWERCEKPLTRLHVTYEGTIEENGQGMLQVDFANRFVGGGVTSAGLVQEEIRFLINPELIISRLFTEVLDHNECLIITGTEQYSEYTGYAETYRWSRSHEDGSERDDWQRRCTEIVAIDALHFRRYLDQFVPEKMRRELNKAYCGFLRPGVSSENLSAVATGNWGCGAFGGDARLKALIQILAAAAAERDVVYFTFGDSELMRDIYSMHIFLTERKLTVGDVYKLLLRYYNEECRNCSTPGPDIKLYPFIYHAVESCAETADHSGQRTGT

| Compound | IC50 [1] [nM] | IC50 (Kuramochi cells) [nM] |
| --- | --- | --- |
| C#CC1(NS(=O)(=O)c2cc(N3CCC4(CC3)COC4)n3ncc(-c4nnc(C(F)F)s4)c3c2)CC1 [Example 4, 3-(5-(difluoromethyl)-1,3,4-thiadiazol-2-yl)-N-(1-ethynylcyclopropyl)-7-(2-oxa-7-azaspiro[3.5]nonan-7-yl)pyrazolo[1,5-a]pyridine-5-sulfonamide] | < 100 | < 1000 |
| N#CC1(c2nnc(-n3ncc4c(N5CCC6(CC5)COC6)cc(S(=O)(=O)NC5(C(F)F)CC5)cc43)s2)CC1 [Example 32, 1-(5-(1-cyanocyclopropyl)-1,3,4-thiadiazol-2-yl)-N-(1-(difluoromethyl)cyclopropyl)-4-(2-oxa-7-azaspiro[3.5]nonan-7-yl)-1H-indazole-6-sulfonamide] | < 100 | < 1000 |
| Cc1nnc(-c2cnn3c(N4CCC5(CC4)COC5)cc(S(=O)(=O)NC4(C)CC4)cc23)o1 [Example 9, 3-(5-methyl-1,3,4-oxadiazol-2-yl)-N-(1-methylcyclopropyl)-7-(2-oxa-7-azaspiro[3.5]nonan-7-yl)pyrazolo[1,5-a]pyridine-5-sulfonamide] | 100 to 500 | < 1000 |
| N#CC1(c2nnc(-c3cnn4c(N5CCC6(CC5)COC6)cc(S(=O)(=O)NC5(C(F)F)CC5)cc34)s2)CC1 [Example 23, 3-[5-(1-cyanocyclopropyl)-1,3,4-thiadiazol-2-yl]-N-[1-(difluoromethyl)cyclopropyl]-7-(2-oxa-7-azaspiro[3.5]nonan-7-yl)pyrazolo[1,5-a]pyridine-5-sulfonamide] | < 100 | < 1000 |
